According to patent publication US20170059573A1, “METHOD OF DETECTING PEROXYNITRITE USING A COMPLEX OF A SACCHARIDE AND AN ARYLBORONATE-BASED FLUORESCENT PROBE” (UNIVERSITY OF BATH, priority 2014, published 2017):

How the values were obtained:
[1] = pH titration of fluorescence intensity; type: physicochemical; details: probe 2 μM
Method: As shown by FIG. 2, the fluorescence intensity of the probe 1 decreased at pH values above 8.0. […] Thus, the probe can be expected to work well under physiological conditions (pH 7.30, PBS buffer). In the presence of D-fructose (100 mM), the fluorescence of the formed 1-D-fructose complex increases due to the enhanced N—B interaction at different pH values. The fluorescence of 1-D-fructose complex decreases over a pH range of 3-11.

[2] = Fluorescence response to D-fructose binding; details: probe 2 μM; D-fructose 100 mM; pH 7.3 buffer
Method: (a) Fluorescence spectra of probe 1 (2 μM) and then addition of D-fructose (100 mM). After addition of D-fructose, the mixtures were stirred for 10 min; (b) Probe 1-D-fructose complex (probe 1, 2 μM; D-fructose, 100 mM) in different concentration of ONOO^−. After addition of peroxynitrite, the mixtures were stirred for 5 min;
The saccharide-boronic acid complexes were formed by mixing free boronic acid (2 μM) with D-fructose (100 mM) for 10 min in situ.
In the case of probe 1, a significant “off-on” signal response is seen on binding with D-fructose due to an inhibition of PET mechanism. From FIG. 3a, the maximum fluorescence intensity of probe 1 (2 μM, λem=525 nm) is increased two-fold in the presence of D-fructose (100 mM) at pH 7.3 buffer solution.

[3] = Fluorescence titration with peroxynitrite; details: saccharide free probe 2 μM; peroxynitrite 60 μM; pH 7.3 PBS
[4] = Fluorescence response to hydrogen peroxide
Method: The pH was adjusted from 7.30 to 8.10 using aqueous sodium hydroxide (10 N); (b) Fluorescence spectra of probe 1-D-fructose complex (probe 1, 2 μM; D-fructose, 100 mM) in the presence of hydrogen peroxide (1 mM) at pH 7.3 buffer solution. The spectra were collected at increasing reaction times with excitation at 410 nm (Ex slit: 5.0, Em slit: 5.0);
The concentration of hydrogen peroxide (H2O2) was determined from the absorption at 240 nm (ε=43.6 M^−1 cm^−1).
Since boronate-based derivatives can be oxidized to phenol by H2O2 and ONOO^−, it is important to discriminate them by fluorescence tools. Independently, the present inventors tested the responses of probe 1 and 1-D-fructose complex towards hydrogen peroxide (FIG. 7). With the free boronic acid system, the fluorescence of probe 1 (2 μM) increased to F/F0=ca. 1.59 in the presence of hydrogen peroxide (100 μM) over 1 h at pH 7.30 buffer solution. When the solution was adjusted to pH 8.10, the fluorescence decreased most probably due to the decomposition of the intermediate to phenol (FIG. 7a). This is different from the process observed for the detection of ONOO^− in which boronic acid was transformed into phenol quickly and directly.
The fluorescence reaction of 1-D-fructose complex towards ONOO^− amd H2O2 at pH 5.0 buffer solution in order to mimic the acidic conditions found in cancer cells (FS5) was also studied. […]

[5] = UV-Vis absorption spectra; type: physicochemical
Method: While the presence of ONOO^− (100 μM), a new peak (A=0.021) at 360 nm developed due to the formation of phenol.

CN(CCNc1ccc2c3c(cccc13)C(=O)N(CCOCCO)C2=O)Cc1ccccc1B(O)O [probe 1]
pH effect on fluorescence intensity ([1]; pH range between 3.0 and 8.0): minimal effect | pH effect on fluorescence intensity ([1]; pH values above 8.0): decreased | increase of maximum fluorescence intensity (λem=525 nm) in presence of D-fructose [2]: two-fold | F/F0 [3]: ca. 0.10 | F/F0 ([4]; free boronic acid probe 2 μM, hydrogen peroxide 100 μM over 1 h, pH 7.30 buffer): ca. 1.59 | fluorescence after adjusting the solution to pH 8.10 ([4]; probe 2 μM after H2O2 100 μM, pH adjusted from 7.30 to 8.10): decreased | maximum absorption A at 440 nm ([5]; free boronic acid probe 2 μM): 0.026 | absorption A of new peak at 360 nm ([5]; in presence of ONOO− 100 μM): 0.021 | absorption A at the maximum absorption wavelength ([5]; probe 2 μM with D-fructose 100 mM): 0.019
